US12208077B2, “Synergistic composition for potentiating stabilized ATP” (CELAGENEX RESEARCH (INDIA) PVT. LTD., priority 2021, dated 2025)

How the values were obtained:
HepG2 cells = test: Estimation of cellular ATP levels in HepG2 cells (BioVision kit); assay type: cell-based, human; conditions: 24 hr treatment, amount of each test substance as in the group name (Table 1/3)
Method: In vitro evaluation of the modulatory potential of the test substances on cellular ATP levels in (HepG2) human Hepatocellular carcinoma cell line.
(§1) About 10 mg of all the test substances were dissolved separately with 1 ml DMEM-HG supplemented with 2% inactivated FBS to obtain a stock solution of 10 mg/ml concentration and sterilized by 0.22u syringe filtration. Diluted the stock to desired concentration for carrying out further studies.
(§2) Cell line HepG2 was procured from NCCS (National Center for Cell Sciences), Pune, and was cultured in DMEM-HG supplemented with 10% inactivated Fetal Bovine Serum (FBS), penicillin (100 IU/ml), streptomycin (100 μg/ml) and amphotericin B (5 μg/ml) in a humidified atmosphere of 5% CO2 at 37° C. until confluent. The cells were dissociated with TPVG solution (0.2% trypsin, 0.02% EDTA, 0.05% glucose in PBS). The stock cultures were grown in 25 cm^2 culture flasks and all experiments were carried out in 96 well microtitre plates (Tarsons India Pvt. Ltd., Kolkata, India).
HepG2 cells were trypsinized from stock culture flasks and the cell count was adjusted to 1.0×10^5cells/ml, the cell suspension was seeded into a 96-well plate. After 24 hr, cell cultures with 70-80% confluency, cells were treated with different non-toxic concentrations of test substances. After 24 hr of treatment, the plate was washed with phosphate buffer saline. The cellular ATP levels determination was performed according to the instruction given in the kit manual (BioVision, #K354-100). At the end of the experiment, the optical density was read at 570 nm using microplate reader. From the absorbance values, the cellular ATP levels were estimated using kit protocol and the concentration of cellular ATP levels in treated groups were determined in comparison to the control groups.

erythrocytes = conditions: humans; after 24 h of continuous infusion; dose-dependent; cited from earlier work
[1] = cited from earlier work
[2] = cited from earlier work; remark: listed apart in the source
[3] = In vitro cytotoxicity by MTT assay on HepG2 cell line; assay type: cell-based, human; conditions: human, HepG2 cells; for cytotoxicity at 24 h, 62.5 μg/mL: Test Conc. 62.5 μg/mL; for cytotoxicity at 24 h, 125 μg/mL: Test Conc. 125 μg/mL; for cytotoxicity at 24 h, 250 μg/mL: Test Conc. 250 μg/mL; for cytotoxicity at 24 h, 500 μg/mL: Test Conc. 500 μg/mL; for cytotoxicity at 24 h, 1000 μg/mL: Test Conc. 1000 μg/mL; for cytotoxicity at 24 h, 2000 μg/mL: Test Conc. 2000 μg/mL; for cytotoxicity at 24 h, 3000 μg/mL: Test Conc. 3000 μg/mL; for cytotoxicity at 24 h, 4000 μg/mL: Test Conc. 4000 μg/mL; for cytotoxicity at 24 h, 5000 μg/mL: Test Conc. 5000 μg/mL
Method: (§3) The in vitro cytotoxicity was performed on HepG2 (Human Hepatocellular Carcinoma) cell line to find the non-toxic concentrations of the test substances by MTT assay and evaluate their modulatory potential on cellular ATP levels
as §1, §2
(§4) The monolayer cell culture was trypsinized and the cell count was adjusted to 1.0×10^5cells/ml using DMEM-HG containing 10% FBS. To each well of the 96 well microtitre plate, 0.1 ml of the diluted cell suspension was added. After 24 h, when a partial monolayer was formed, the supernatant was flicked off, the monolayer was washed once with medium and 100 μl of different concentrations of test substances were added. The plate was then incubated at 37° C. for 24 h in a 5% CO2 atmosphere, and microscopic examination was carried out and observations were noted after 24 h time.
(§5) After 24 h of incubation, the drug solutions in the wells were discarded and 50 μl of MTT in DPBS was added to each well. The plate was gently shaken and incubated for 3 h at 37° C. in a 5% CO2 atmosphere. The supernatant was removed and 100 μl of 2-propanol was added and the plate was gently shaken to solubilize the formed formazan. The absorbance was measured using a microplate reader at a wavelength of 570 nm. The percentage growth inhibition was calculated using the standard formula. The concentration of test substances, needed to inhibit the growth of the cell by 50% i.e., CTC50 values were generated from the dose-response curves

HepG2 cell line = test: as above; assay type: cell-based, human; conditions: Homo sapiens, concentration needed to inhibit growth of the cell by 50%, 24 h, read-out: CTC50
Method: as §3, §1, §2, §4, §5

MS-related fatigue = conditions: treatment of MS-related fatigue; cited from earlier work
[4] = system: Patients with hepatic encephalopathy (HE); conditions: patients with hepatic encephalopathy treated with ALCAR; cited from earlier work

Structure (SMILES) | Cellular ATP (HepG2 cells) | Percentage enhancement of cellular ATP levels over cell control (HepG2 cells) | increase of ATP concentrations in erythrocytes (erythrocytes) | stability in acidic conditions [1] | half-life of infused ATP [2] | cytotoxicity at 24 h, 62.5 μg/mL [3] | cytotoxicity at 24 h, 125 μg/mL [3] | cytotoxicity at 24 h, 250 μg/mL [3] | cytotoxicity at 24 h, 500 μg/mL [3] | cytotoxicity at 24 h, 1000 μg/mL [3] | cytotoxicity at 24 h, 2000 μg/mL [3] | cytotoxicity at 24 h, 3000 μg/mL [3] | cytotoxicity at 24 h, 4000 μg/mL [3] | cytotoxicity at 24 h, 5000 μg/mL [3] | IC50 (HepG2 cell line) | efficacy compared with amantadine (MS-related fatigue) | physical activity [4] | severity of mental and physical fatigue [4]
Nc1ncnc2c1ncn2[C@@H]1O[C@H](COP(=O)(O)OP(=O)(O)OP(=O)(O)O)[C@@H](O)[C@H]1O [ATP, Adenosine triphosphate] | 119.88 ± 0.45 nM | 230.33% | ~60% | quickly decompose | less than one |  |  |  |  |  |  |  |  |  |  |  |  | 
OO [Composition H2O2, H2O2, reference compound] | 22.35 ± 0.48 nM | −38.40% |  |  |  |  |  |  |  |  |  |  |  |  |  |  |  | 
CC(=O)NCCS(=O)(=O)O [Magnesium Acetyl Taurate, magnesium; 2-acetamidoethanesulfonate; dihydrate] | 56.28 ± 0.56 nM | 55.07% |  |  |  | 1.31 ± 0.231% | 1.25 ± 0.91% | 1.75 ± 0.43% | 1.53 ± 0.408% | 1.36 ± 0.967% | 6.55 ± 0.482% | 3.71 ± 1.34% | 6.17 ± 2.39% | 12.2 ± 1.56% | > 5000 µg/mL |  |  | 
CC(=O)O[C@H](CC(=O)O)C[N+](C)(C)C [N-Acetyl L carnitine, (3R)-3-acetyloxy-4-(trimethylazaniumyl) butanoate] | 39.92 ± 0.45 nM | 10.00% |  |  |  | 0.982 ± 0.876% | 0.546 ± 0.408% | 1.31 ± 0.134% | 1.69 ± 0.204% | 2.46 ± 1.58% | 2.62 ± 0.964% | 3 ± 0.736% | 5.18 ± 2.68% | 32.6 ± 2.55% | > 5000 µg/mL | more effective | increase | decrease
